We go through four sequences from patent US7794723B2, “Antigenic peptides derived from telomerase” (GemVax AS, priority 1998, dated 2010).

Data set [1] concerns tumor infiltrating lymphocytes (TILs) obtained from a patient with advanced pancreatic cancer. Put plainly: Reactivity of tumor infiltrating lymphocytes (TILs), standard proliferation assay. The format is cell-based, human. Conditions: CD3+, CD4+, CD8− T cell line. The text has this: FIGS. 3 and 4 (FIG. 3 and FIG. 4) show the reactivity of tumor infiltrating lymphocytes (TILs) obtained from a patient with advanced pancreatic cancer. The T cells were obtained from a tumor biopsy and were successfully propagated in vitro to establish a T cell line. The T cell line was CD3+, CD4+ and CD8−, and proliferated specifically in response to the telomerase peptides. The results in FIG. 3 show T cells that recognize the peptides with SEQ ID NOs: 2 and 3 when compared to controls with medium alone. The results in FIG. 4 show T cells that recognize the peptide with SEQ ID NO:2. The TILs were expanded by co-culturing with recombinant human interleukin 2 (rIL-2) and tested after 14 days in standard proliferation assay using peptides with SEQ ID NOs: 2, 3, 4 and 7.

In data set [2] the test system is peripheral blood T cells from a patient with colon cancer. Kind of data set: In vitro stimulation of peripheral blood T cells from a cancer patient, T cell proliferative assay (3H-thymidine). The format is cell-based, human. Conditions: FIG. 2; peptide 30 μg/ml; 10^5 mononuclear cells; cultures without peptide as control. The procedure: In vitro culture was performed as follows: Triplicates of 105 mononuclear cells were incubated for […] in X-VIVO 10 medium supplemented with 15% pooled heat inactivated human serum in a humidified incubator in 5% CO2. Peptides were present throughout culture at a final concentration of 30 μg/ml in the medium. Cultures without peptide served as control. […] Furthermore, one component of the telomerase specific response in this patient is directed against the peptide with SEQ ID NO:4 described here. […] The figure depicts the results of conventional T cell proliferative assays, where peripheral blood mononuclear cells (10^5) were cultured with peptides as indicated for 7 days in triplicates before harvesting. To measure the proliferative capacity of the cultures, 3H-thymidine (3.7×10^4 Bq/well) was added to the culture overnight before harvesting. Values are given as mean counts per minute (cpm) of the triplicates.

Data set [3] has as its system hTERT expressing target cells (Jurkat) transfected with HLA-A2 (A2/K^b). Conditions: FIG. 1; T cells from mice primed with the peptide; target cells pulsed with control peptide (influenza 58-66); different effector to target ratios; 4 hours.
Where [4] appears, read: FIG. 3, compared to controls with medium alone.

Where no end group is shown, it is not given here.

Take DGLRPIVNMDYVVGAR [SEQ ID NO:3]: the “recognition of peptide by TIL T cells (proliferation)” value in data set [1] (setting [4]) is recorded as “recognize”.

Consider EARPALLTSRLRFIPK [SEQ ID NO:2], for which the “recognition of peptide by TIL T cells (proliferation)” value in data set [1] (setting [4]) and in data set [1] (FIG. 4) was “recognize” throughout.

Turning to “GVPEYGCVVNLRKVVNF (GVPEYGCVVNLRKTVVNF) [SEQ ID NO:4]”, in data set [2], the “proliferative response of T cells (3H-thymidine, mean cpm)” value is given as “proliferative response above background values”.

On to ILAKFLHWL [SEQ ID NO:9], for which, in data set [3], the “specific cytotoxicity (killing of HLA-A2 transfected Jurkat cells)” value is on record as “Specific cytotoxicity above background was observed at all effector to target ratios”.
